According to patent US20250134889A1, “TARGETING IRE1 KINASE AND FMRP FOR PROPHYLAXIS, MANAGEMENT AND TREATMENT OF ATHEROSCLEROSIS” (CEDARS-SINAI MEDICAL CENTER, priority 2022, published 2025):

System: peritoneal macrophages
Assay: In vivo foam cell formation assay
Parameters: species or system mouse
Conditions: Apoe-/- mice, WD 12 weeks, 30 mg/kg/day in the last 4 weeks, ORO staining
Description: FIGS. 2A-2M depict that FMRP deficiency enhances RCT while reducing foam cell formation in vivo. (Data are mean±SEM. Unpaired t-test with Welch's correction. * P≤0.05, ** P≤0.01, *** P≤0.001.) • 2A. Fmr1^+/+ and Fmr1^−/− mice were injected with AAV_PCSK9 and fed with 16 weeks of WD. Residential PM were stained with Oil Red O (ORO) and imaged (n=7; Scale bar=50 μm). • 2B. Apoe-/mice were fed with WD (12 weeks) and injected with vehicle (DMSO) or AMG-18 (30 mg/kg/day) in the last 4 weeks of WD. Residential PM were stained with ORO and imaged (n=5; Scale bar=50 μm). • 2C-2E. […] Macrophages were pre-loaded with fluorescently labeled cholesterol (16 hours) followed by incubation in efflux medium including APOA1 (25 μg/ml) or HDL (50 μg/ml) as acceptors for 6 hours. % Efflux was calculated as cholesterol signal in medium/cholesterol signal in medium and cell: Cholesterol efflux in (2F) Fmr1+/+ and Fmr1^−/− BMDM (n=4) and in (2G) BMDM that were pre-treated either with DMSO or AMG-18 (5 μM; 1 hour) (n=4). • 2H-2K. […] Protein lysates from macrophages used in FIG. 2C were analyzed by western blotting using specific antibodies for FMRP and β-Actin. • 2M. […]

Cc1ccc2c(NS(=O)(=O)c3ccccc3Cl)cccc2c1Oc1ncccc1-c1ccnc(N[C@H]2CCCNC2)n1 [AMG-18]
foam cell formation in the peritoneum: reduced
